Experiment [1] in a line: Non-nucleoside inhibition of NS5B polymerase in HCV genotype 1a by Taqman probe based RT-PCR analysis. A general note: In qPCR the cycle at which signal appears reflects the starting amount.
The nature of experiment [2]: Non-nucleoside inhibition of NS5B polymerase in HCV genotype 2b by Taqman probe based RT-PCR analysis.
Experiment [3] can be described thus: Non-nucleoside inhibition of NS5B polymerase in HCV genotype 3a by Taqman probe based RT-PCR analysis.
The nature of experiment [4]: Non-nucleoside inhibition of NS5B polymerase S365A mutant in HCV genotype 1a by Taqman probe based RT-PCR analysis.
A short description of experiment [5]: Non-nucleoside inhibition of NS5B polymerase in HCV genotype 4a by Taqman probe based RT-PCR analysis.
Experiment [6] can be described thus: Non-nucleoside inhibition of NS5B polymerase C316Y mutant in HCV genotype 1a by Taqman probe based RT-PCR analysis.
Experiment [7] is described as follows: Non-nucleoside inhibition of NS5B polymerase in HCV genotype 2a by Taqman probe based RT-PCR analysis.
Experiment [8] in a line: Non-nucleoside inhibition of NS5B polymerase in HCV genotype 1b by Taqman probe based RT-PCR analysis.

In BindingDB's records for doi:10.1016/j.bmcl.2020.127004 (Merck, 2020) one finds EC50 data, which are given here for 20 compounds.

What is called EC50 is the concentration at which the effect is half-maximal. Consider `CNC(=O)c1c(-c2ccc(F)cc2)oc2cc(N(C)S(C)(=O)=O)c(-c3ccc4nnn(C(C)c5ccc(F)cc5)c(=O)c4c3)cc12` (stereo not given), for which the EC50 in experiment [1] worked out at 2.8 nM; in experiment [2] it was 5.8 nM; in experiment [3] it was 0.8 nM; in experiment [4], 277 nM; in experiment [5] it was 1.1 nM; in experiment [6], 15 nM. Besides, the 50% effective concentration (EC50) in experiment [7] turned out to be 9.3 nM; in experiment [8], 2.9 nM.
Take `CNC(=O)c1c(-c2ccc(F)cc2)oc2cc(N(C)S(C)(=O)=O)c(-c3ccc4nnn(C(CO)c5ccc(F)cc5)c(=O)c4c3)cc12` (stereo not given): the half-maximal effective concentration (EC50) in experiment [1] was 7.3 nM; in experiment [2], 6 nM; in experiment [3], 0.9 nM; in experiment [4], 1130 nM; in experiment [5], 4.5 nM; in experiment [6] it was 523 nM. Further, the figures for the EC50 in experiment [7] and in experiment [8] were 20 nM and 5.6 nM, respectively.
`CNC(=O)c1c(-c2ccc(F)cc2)oc2cc(N(C)S(C)(=O)=O)c(-c3ccc4nc(C)n(Cc5ccc(F)cn5)c(=O)c4c3)cc12`: the EC50 in experiment [1] was 1.3 nM; in experiment [2] it was 4.2 nM; in experiment [3] it was 1.7 nM; in experiment [4], 228 nM; in experiment [5], 1.6 nM; in experiment [6], 36 nM. Also, the concentration giving a half-maximal response (EC50) was determined as 11 nM in experiment [7] and 2.6 nM in experiment [8].
For the compound `CNC(=O)c1c(-c2ccc(F)cc2)oc2cc(N(C)S(C)(=O)=O)c(-c3ccc4nc(C)n(Cc5ccc(F)cc5OC)c(=O)c4c3)cc12`, the concentration for a half-maximal effect (EC50) was 1 nM in experiment [1]; 5 nM in experiment [2]; 1.1 nM in experiment [3]; 177 nM in experiment [4]; 2.2 nM in experiment [5]; 44 nM in experiment [6]. In addition, the figures for the half-maximal effective concentration (EC50) in experiment [7] and in experiment [8] were 13 nM and 1.5 nM, respectively.
In the case of `CNC(=O)c1c(-c2ccc(F)cc2)oc2cc(N(C)S(C)(=O)=O)c(-c3ccc4nc(C)n(Cc5ccc(F)cc5F)c(=O)c4c3)cc12`, the EC50 is 0.5 nM in experiment [1]; 5.4 nM in experiment [2]; 0.9 nM in experiment [3]; 11 nM in experiment [4]; 0.7 nM in experiment [5]; 5.4 nM in experiment [6]. In addition, the concentration for a half-maximal effect (EC50) was found to be 8.3 nM in experiment [7] and 0.8 nM in experiment [8].
Regarding `CNC(=O)c1c(-c2ccc(F)cc2)oc2cc(N(C)S(C)(=O)=O)c(-c3ccc4nc(C)n([C@H](COC)c5ccc(F)cc5)c(=O)c4c3)cc12`, the EC50 was found to be 0.6 nM in experiment [1]; 11 nM in experiment [2]; 1.6 nM in experiment [3]; 37 nM in experiment [4]; 2.4 nM in experiment [5]; 21 nM in experiment [6]. The results for the EC50 in experiment [7] and in experiment [8] were 19 nM and 1.1 nM, respectively.
For the compound `CNC(=O)c1c(-c2ccc(F)cc2)oc2cc(N(C)S(C)(=O)=O)c(-c3ccc4nc(C)n([C@@H](COC)c5ccc(F)cc5)c(=O)c4c3)cc12`, the EC50 in experiment [1] turned out to be 0.5 nM; in experiment [2], 4.1 nM; in experiment [3], 1.1 nM; in experiment [4], 17 nM; in experiment [5], 0.6 nM; in experiment [6], 30 nM. Also, the results for the EC50 in experiment [7] and in experiment [8] were 7.5 nM and 1.1 nM, respectively.
`CNC(=O)c1c(-c2ccc(F)cc2)oc2cc(N(C)S(C)(=O)=O)c(-c3ccc4c(n3)C(=O)N(c3ccc(F)cc3)CO4)cc12` [US9364482, 2]: the EC50 in experiment [1] was 19 nM; in experiment [2], 19 nM; in experiment [3], 1.5 nM; in experiment [4] it was 1360 nM; in experiment [5], 8.4 nM; in experiment [6], 452 nM. Further, the half-maximal effective concentration (EC50) in experiment [7] is 151 nM; in experiment [8], 3.8 nM.
With `CNC(=O)c1c(-c2ccc(F)cc2)oc2cc(N(C)S(C)(=O)=O)c(-c3ccc4c(n3)C(=O)N(Cc3ccc(F)cc3)CO4)cc12` [US9364482, 6], the 50% effective concentration (EC50) in experiment [1] came out at 1.6 nM; in experiment [2] it was 19 nM; in experiment [3] it was 1.8 nM; in experiment [4], 0.7 nM; in experiment [5], 0.3 nM; in experiment [6] it was 3.5 nM. Besides, the concentration giving a half-maximal response (EC50) turned out to be 4.6 nM in experiment [7] and 1.3 nM in experiment [8].
Regarding `CNC(=O)c1c(-c2ccc(F)cc2)oc2cc(N(C)S(C)(=O)=O)c(-c3ccc4nnn([C@H](COC)c5ccc(F)cc5)c(=O)c4c3)cc12` [US9364482, 39], the concentration giving a half-maximal response (EC50) in experiment [1] is 1.2 nM; in experiment [2] it was 3.9 nM; in experiment [3], 1 nM; in experiment [4] it was 68 nM; in experiment [5], 0.7 nM; in experiment [6] it was 18 nM. Also, the values for the half-maximal effective concentration (EC50) in experiment [7] and in experiment [8] were 12 nM and 2.6 nM, respectively.
Regarding `CNC(=O)c1c(-c2ccc(F)cc2)oc2cc(N(C)S(C)(=O)=O)c(-c3ccc4nnn([C@@H](COC)c5ccc(F)cc5)c(=O)c4c3)cc12` [US9364482, 41], the EC50 in experiment [1] was 4.9 nM; in experiment [2], 11 nM; in experiment [3], 1.8 nM; in experiment [4], 474 nM; in experiment [5], 6 nM; in experiment [6], 292 nM. The results for the concentration for a half-maximal effect (EC50) in experiment [7] and in experiment [8] were 16 nM and 5.6 nM, respectively.
On to `CNC(=O)c1c(-c2ccc(F)cc2)oc2cc(N(C)S(C)(=O)=O)c(-c3ccc4nnn(Cc5ccccc5)c(=O)c4c3)cc12` [US9364482, 42], for which the EC50 in experiment [1] came to 2.3 nM; in experiment [2] it was 6.2 nM; in experiment [3] it was 1 nM; in experiment [4], 335 nM; in experiment [5] it was 3 nM; in experiment [6], 68 nM. Moreover, the EC50 was found to be 8.8 nM in experiment [7] and 3.5 nM in experiment [8].
In the case of `CNC(=O)c1c(-c2ccc(F)cc2)oc2cc(N(C)S(C)(=O)=O)c(-c3ccc4nnn(Cc5ccc(F)cc5)c(=O)c4c3)cc12` [US9364482, 44], the EC50 in experiment [1] amounted to 1.7 nM; in experiment [2] it was 4 nM; in experiment [3] it was 0.8 nM; in experiment [4], 76 nM; in experiment [5], 1.4 nM; in experiment [6] it was 12 nM. The concentration giving a half-maximal response (EC50) in experiment [7] came to 13 nM; in experiment [8] it was 3.9 nM.
On to `CNC(=O)c1c(-c2ccc(F)cc2)oc2cc(N(C)S(C)(=O)=O)c(-c3ccc4nnn(Cc5ccc(F)cn5)c(=O)c4c3)cc12` [US9364482, 48], for which the half-maximal effective concentration (EC50) in experiment [1] is 3.3 nM; in experiment [2], 5.6 nM; in experiment [3], 1.1 nM; in experiment [4], 446 nM; in experiment [5] it was 2.1 nM; in experiment [6], 29 nM. Further, the concentration for a half-maximal effect (EC50) in experiment [7] turned out to be 11 nM; in experiment [8], 2.7 nM.
`CNC(=O)c1c(-c2ccc(F)cc2)oc2cc(N(C)S(C)(=O)=O)c(-c3ccc4ncn(Cc5ccccc5)c(=O)c4c3)cc12` [US9364482, 49]: the EC50 was 3.2 nM in experiment [1]; 9.4 nM in experiment [2]; 1.2 nM in experiment [3]; 190 nM in experiment [4]; 3.5 nM in experiment [5]; 70 nM in experiment [6]. For the same compound, the 50% effective concentration (EC50) in experiment [7] turned out to be 18 nM; in experiment [8], 3.5 nM.
As to `CNC(=O)c1c(-c2ccc(F)cc2)oc2cc(N(C)S(C)(=O)=O)c(-c3ccc4nc(COC)n(Cc5ccc(F)cc5)c(=O)c4c3)cc12` [US9364482, 53], the concentration for a half-maximal effect (EC50) in experiment [1] amounted to 2.1 nM; in experiment [2], 3.7 nM; in experiment [3], 0.8 nM; in experiment [4], 19 nM; in experiment [5], 0.9 nM; in experiment [6], 4.1 nM. In addition, the values for the concentration for a half-maximal effect (EC50) in experiment [7] and in experiment [8] were 8.2 nM and 2.4 nM, respectively.
For the compound `CNC(=O)c1c(-c2ccc(F)cc2)oc2cc(N(C)S(C)(=O)=O)c(-c3ccc4nc(CNC(C)=O)n(Cc5ccc(F)cc5)c(=O)c4c3)cc12` [US9364482, 54], the concentration giving a half-maximal response (EC50) was 1.1 nM in experiment [1]; 5.9 nM in experiment [2]; 1.4 nM in experiment [3]; 8.3 nM in experiment [4]; 6.6 nM in experiment [5]; 32 nM in experiment [6]. In addition, the concentration giving a half-maximal response (EC50) in experiment [7] amounted to 58 nM; in experiment [8], 2.8 nM.
Consider `CNC(=O)c1c(-c2ccc(F)cc2)oc2cc(N(C)S(C)(=O)=O)c(-c3ccc4nc(C)n(Cc5ccc(F)cc5)c(=O)c4c3)cc12` [US9364482, 55], for which the half-maximal effective concentration (EC50) came to 0.3 nM in experiment [1]; 1.5 nM in experiment [2]; 0.6 nM in experiment [3]; 7.1 nM in experiment [4]; 0.6 nM in experiment [5]; 2.9 nM in experiment [6]. For the same compound, the concentration for a half-maximal effect (EC50) in experiment [7] was found to be 4.1 nM; in experiment [8], 1.1 nM.
Take `CNC(=O)c1c(-c2ccc(F)cc2)oc2cc(N(C)S(C)(=O)=O)c(-c3ccc4nc(C)n(Cc5ccc(F)cc5)c(=O)c4n3)cc12` [US9364482, 68]: the EC50 in experiment [1] was 1.1 nM; in experiment [2] it was 2.7 nM; in experiment [3], 1 nM; in experiment [4], 137 nM; in experiment [5] it was 2.9 nM; in experiment [6] it was 36 nM. Also, the EC50 worked out at 10 nM in experiment [7] and 1.6 nM in experiment [8].
As to `CNC(=O)c1c(-c2ccc(F)cc2)oc2cc(N(C)S(C)(=O)=O)c(-c3cc4c(=O)n(Cc5ccc(F)cc5)nnc4cc3F)cc12` [US9364482, 70], the EC50 stood at 0.7 nM in experiment [1]; 2.9 nM in experiment [2]; 1.2 nM in experiment [3]; 47 nM in experiment [4]; 1.2 nM in experiment [5]; 5.6 nM in experiment [6]. Moreover, the figures for the EC50 in experiment [7] and in experiment [8] were 6.1 nM and 2.7 nM, respectively.
